Data taken from patent US20040106545A1, “Compounds and methods for modulating cell adhesion” (priority 1996, published 2004).
Entries after “also recorded” stand apart in the source; their conditions may differ. Positions of bridges follow the written chain, without caps; N, C: chain ends. Residues, ends and D or L forms follow the SMILES beside them.

Assays:
PC-3 = format: cell-based, human; conditions: 3 h
How it was run: (§1)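 Cytotoxicity of N-Ac-CHAVC-NH2 and the control peptide N-Ac-CHGVC-NH2 was assessed by MTT reduction in human endothelial, fibroblast and cancer cell lines at concentrations up to 100 μM. Proliferation was measured separately by ^3H-thymidine incorporation over the same concentration range.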

MDA-MB231 = format: cell-based, human; conditions: 3 h
How it was run: as §1

HMVEC = format: cell-based, human; conditions: 3 h
How it was run: as §1

HUVEC = format: cell-based, human; conditions: 3 h
How it was run: as §1

[1] = test system: SKOV3 human ovarian cancer cells; assay: Induction of apoptosis in SKOV3 cancer cells, in situ cell death detection; format: cell-based; conditions: 0.5 or 0.25 mg/mL, 48 hours
Protocol: Direct assays of induction of apoptosis may be performed using any standard technique. For example, cadherin-expressing cells (e.g., SKOV3 human ovarian cancer cells) may be plated onto poly-L-lysine coated glass slides and cultured with 500 μg/mL of modulating agent for 24-48 hours. Cells may then be fixed and assayed for cell death using any of a variety of well known methods. For example, an in situ cell death detection kit may be purchased from Boehringer Mannheim (Laval, Quebec) and used according to the manufacturer's instructions.
SKOV3 human ovarian cancer cells cultured in the presence of either N—Ac-CHAVC-NH2 (SEQ ID NO:10) or a control peptide (N—Ac-CHGVC-NH2; SEQ ID NO:11) in MEM with 10% FBS were plated onto poly-L-lysine coated glass slides. The cells were cultured for 24 or 48 hours and fixed with 4% paraformaldehyde for 30 minutes at room temperature. The slides were then washed three times with PBS and assessed for cell death. Cells were treated with 0.5 or 0.25 mg/mL of N—Ac-CHAVC-NH2 (SEQ ID NO:10) or the control N—Ac-CHGVC-NH2 (SEQ ID NO:11), as indicated. Cell death was measured as described by Gavrieli et al, J. Cell. Biol. 119:493-501, 1992 and using the In situ cell death detection kit (Boehringer Mannheim; Laval, Quebec).

N-cadherin = biological target: T1, N-cadherin (Gallus gallus, UniProt P10288); assay: Neurite outgrowth of mouse cerebellar neurons on N-cadherin expressing 3T3 monolayers (Example 2); format: cell-based
T1 construct: expressed in transfected cells; host or cells: 3T3 fibroblasts (monolayer)
T1 sequence (P10288 165-912): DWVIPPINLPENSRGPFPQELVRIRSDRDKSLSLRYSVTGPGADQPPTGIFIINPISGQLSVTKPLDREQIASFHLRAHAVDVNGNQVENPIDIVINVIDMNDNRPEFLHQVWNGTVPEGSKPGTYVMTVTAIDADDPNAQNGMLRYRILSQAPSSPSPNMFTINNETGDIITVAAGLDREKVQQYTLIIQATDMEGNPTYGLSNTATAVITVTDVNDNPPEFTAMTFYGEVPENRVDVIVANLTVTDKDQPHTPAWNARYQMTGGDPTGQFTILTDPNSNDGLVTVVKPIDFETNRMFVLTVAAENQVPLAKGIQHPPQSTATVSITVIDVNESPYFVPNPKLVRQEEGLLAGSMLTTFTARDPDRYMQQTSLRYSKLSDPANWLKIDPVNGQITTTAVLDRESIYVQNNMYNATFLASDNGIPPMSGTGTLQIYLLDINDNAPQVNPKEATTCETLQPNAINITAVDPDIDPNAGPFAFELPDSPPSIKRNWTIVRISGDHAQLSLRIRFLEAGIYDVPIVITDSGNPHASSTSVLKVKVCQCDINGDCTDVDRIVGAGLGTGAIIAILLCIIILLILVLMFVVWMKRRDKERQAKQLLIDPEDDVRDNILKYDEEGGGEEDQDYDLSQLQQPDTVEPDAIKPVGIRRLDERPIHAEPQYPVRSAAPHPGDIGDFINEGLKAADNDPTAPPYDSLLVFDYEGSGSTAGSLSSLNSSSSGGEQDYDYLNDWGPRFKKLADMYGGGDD
Description: Within a representative neurite outgrowth assay, neurons may be cultured on a monolayer of cells (e.g., 3T3) that express N-cadherin. […] For example, neurons may be cultured on monolayers of 3T3 cells transfected with cDNA encoding N-cadherin essentially as described by Doherty and Walsh, Curr. Op. Neurobiol. 4:49-55, 1994; Williams et al., Neuron 13:583-594, 1994; Hall et al., Cell Adhesion and Commun. 3:441-450, 1996; Doherty and Walsh, Mol. Cell. Neurosci. 8:99-111, 1994; and Safell et al., Neuron 18:231-242, 1997. Briefly, monolayers of control 3T3 fibroblasts and 3T3 fibroblasts that express N-cadherin may be established by overnight culture of 80,000 cells in individual wells of an 8-chamber well tissue culture slide. 3000 cerebellar neurons isolated from post-natal day 3 mouse brains may be cultured for 18 hours on the various monolayers in control media (SATO/2% FCS), or media supplemented with various concentrations of the modulating agent or control peptide. The cultures may then be fixed and stained for GAP43 which specifically binds to the neurons and their neurites. The length of the longest neurite on each GAP43 positive neuron may be measured by computer assisted morphometry.
Neurons were cultured on monolayers of 3T3 cells transfected with cDNA encoding N-cadherin essentially as described by Doherty and Walsh, Curr. Op. Neurobiol. 4:49-55, 1994; Williams et al., Neuron 13:583-594, 1994; Hall et al., Cell Adhesion and Commun. 3:441-450, 1996; Doherty and Walsh, Mol. Cell. Neurosci. 8:99-111, 1994; Safell et al., Neuron 18:231-242, 1997. Briefly, monolayers of control 3T3 fibroblasts and 3T3 fibroblasts that express N-cadherin were established by overnight culture of 80,000 cells in individual wells of an 8-chamber well tissue culture slide. […] The length of the longest neurite on each GAP43 positive neuron was then measured by computer assisted morphometry.

Question: What does the source list for CC[C@H](C)[C@@H]1NC(=O)[C@H](CC(=O)O)NC(=O)[C@H](C(C)C)NC(=O)[C@H](C)NC(=O)[C@H](Cc2c[nH]cn2)NC(=O)[C@H](C)NC(=O)[C@@H](NC(C)=O)CSSC[C@@H](C(N)=O)NC1=O (Ac-CAHAVDIC-NH2; disulfide 1-8)?
Answer: IC50 (PC-3): > 100 µM; IC50 (MDA-MB231): > 100 µM; IC50 (HMVEC): > 100 µM; IC50 (HUVEC): > 100 µM

Question: Which IC50 (PC-3) does the source give for CC(=O)N[C@H]1CSSC[C@@H](C(N)=O)NC(=O)[C@H](CC(=O)O)NC(=O)[C@H](C(C)C)NC(=O)[C@H](C)NC(=O)[C@H](Cc2c[nH]cn2)NC(=O)[C@H](C)NC1=O [N—Ac—CAHAVDC—NH2, N-Ac-Cys-Ala-His-Ala-Val-Asp-Cys-NH2] (Ac-CAHAVDC-NH2; disulfide 1-7) here?
Answer: > 100 µM

Question: What about the IC50 (MDA-MB231) of the same compound?
Answer: > 100 µM

Question: And the IC50 (HMVEC)?
Answer: > 100 µM

Question: What about the IC50 (HUVEC) of the same compound?
Answer: > 100 µM

Question: With CC(=O)N[C@H]1CSSC[C@@H](C(N)=O)NC(=O)[C@H](C(C)C)NC(=O)[C@H](C)NC(=O)[C@H](Cc2c[nH]cn2)NC1=O [N—Ac—CHAVC—NH2, N-Ac-Cys-His-Ala-Val-Cys-NH2] as the compound, how does the “cell death of SKOV3 cells” value [1] read?
Answer: fluorescent green nuclei in FIGS. 35C and 35D indicate cell death; also recorded: can cause human ovarian cancer cell death

Question: What about the “inhibition of neurite outgrowth on 3T3 cells expressing N-cadherin” value (N-cadherin; 50 μg/mL) of the same compound?
Answer: significantly inhibited neurite outgrowth

Question: And the “inhibition of neurite outgrowth on 3T3 cells expressing N-cadherin” value (N-cadherin; 500 μg/mL, 18 hours)?
Answer: completely inhibited neurite outgrowth

Question: What does the source list for CC(=O)N[C@H]1CSSC[C@@H](C(N)=O)NC(=O)[C@H](C(C)C)NC(=O)CNC(=O)[C@H](Cc2c[nH]cn2)NC1=O [N—Ac—CHGVC—NH2, reference compound]?
Answer: cell death of SKOV3 cells [1]: did not die; inhibition of neurite outgrowth on 3T3 cells expressing N-cadherin (N-cadherin; 500 μg/mL, 18 hours): had no effect on this process
